Laboratory results taken from patent publication US7979946B2, “Polish and polishing mitts” (Kimberly-Clark Worldwide, Inc., priority 2006, dated 2011).
Entries after “also recorded” stand apart in the source; their conditions may differ.

System: mold
Assay: Inhibition of mold growth in a polish applied to a mitt
Type: cell-based
Conditions: chemical added to base polish (Pedag Deluxe Cream Polish), samples compared with each other
Source text: In each of the following Examples, a polish was applied to a mitt. The base polish was provided by Pedag USA, Inc. (Seattle) under the trade name Deluxe Cream Polish. […] The second sheet layer was constructed of a high-loft spunbond web of bicomponent polypropylene/polyethylene fibers with a side-by-side orientation laminated to a film of high density polyethylene on the inside surface. […] The first sheet layer and the second sheet layer were ultrasonically bonded leaving an opening for the insertion of two fingers (such as at seams 16 of FIGS. 1-3). Several different chemicals were tested to determine their ability to inhibit mold growth in a polish that has been applied to a mitt. For example, chloroacetamide, polyaminopropyl biguanide available under the name Cosmocil CQ from ICI Americas Inc., organosilicone quaternary ammonium compound available under the name AEM 5700 from Dow Chemical by Aegis Environmental Management (Midland, Mich.), a combination of combination of isothiazolones and N-/O-formals available under the name Parmetol DF35 from Schulke & Mayr, and methylparaben were each added to a base polish sample. The resulting polish samples were then applied to mitts. The ability of the polish to inhibit mold growth for each sample was then compared.

| Structure (SMILES) | ability of the polish to inhibit mold growth |
| --- | --- |
| CCC(=O)O [propanoic acid] | inhibited growth of mold better than the other tested chemicals |
| COC(=O)c1ccc(O)cc1 [methylparaben] | inhibited growth of mold better than the other tested chemicals; also recorded: best results of all samples |
